# Measured values taken from US8940739B2, “Compound of a reverse-turn mimetic and a production method and use therefor” (JW Pharmaceutical Corporation, priority 2010, dated 2015).
# Test system: MV-4-11 (human, Acute Myeloid Leukemia cell line) cells
# Assay: Cell growth inhibition assay, GI50 of MV-4-11
# Format: cell-based
# Conditions: Homo sapiens, MV4-11, 72 h, MV-4-11 cells
# Experimental: The anti-proliferative activity (cell growth inhibition assay) of the compounds according to the present invention against AML (Acute Myeloid Leukemia) cancer cells was measured. […] The lower the GI50 value, the higher the anti-proliferative activity.
# A cell growth Inhibition assay was performed to investigate the rate of inhibition of cell proliferation by the compounds of the present invention. MV-4-11 (human, Acute Myeloid Leukemia cell line) cells were cultured in Iscove's modified Dulbecco's medium (IMDM) including 10% fetal bovine serum (FBS), 1× penicillin/streptomycin (10,000 units/ml Penicillin, […] Streptomycin in 0.85% NaCl). MV-4-11 cells were harvested with the IMDM and 5×10^4 cells/well were transferred to each well of 96-well culture plates (Nunc, #167008).
# The compounds of Examples 1 to 5 were exposed to serial dilution and duplicated for each concentration. For the serial dilution, the compounds of the present invention were repeatedly diluted with the same volume of media onto 96-well assay block (costar, #3956). After the dilution, each compound was added to each well.
# Also, the background absorbance was measured during the treatment with the test compounds by replacing the test compound with IMDM in the negative control plate. The plates were incubated for three days (72 hours) at 37 in the humidified incubator containing 5% CO2. On the last day, 20 µl of a CellTiter 96 Aqueous One Solution (Promega #G3581) was added to the culture in each well and the plates were incubated for a few hours at 37 in the humidified incubator containing 5% CO2. After the incubation, the absorbance of each cell was measured at 490 nm using an EnVision (Perkinelmer, USA).
# The GI50 values were calculated using a Prism 3.0 program.
row,SMILES,GI50
1,C=CCN1CC(=O)N2[C@@H](Cc3ccc(O)cc3)C(=O)N(Cc3cccc4c(C(=O)N5CCN(Cc6ccc(OC)cc6)CC5)cn(C)c34)C[C@@H]2N1C(=O)NCc1ccccc1 [Compound E-36],8.4 nM
2,C=CCN1CC(=O)N2[C@@H](Cc3ccc(O)cc3)C(=O)N(Cc3cccc4c(-c5ccc(NC(=O)N6CCN(C)CC6)cc5)cn(C)c34)C[C@@H]2N1C(=O)NCc1ccccc1 [Compound D-67],1.3 nM
3,C=CCN1CC(=O)N2[C@@H](Cc3ccc(O)cc3)C(=O)N(Cc3cccc4c(-c5ccc(C(=O)NC)cc5)cn(C)c34)C[C@@H]2N1C(=O)NCc1ccccc1 [Compound D-8],1.2 nM
4,C=CCN1CC(=O)N2C(CN(Cc3cccc4c(C(=O)Nc5ccc(N(C)C)cc5)cn(C)c34)C(=O)[C@@H]2Cc2ccc(O)cc2)N1C(=O)NCc1ccccc1 (stereo partly drawn) [Compound G-14],1.2 nM
5,C=CCN1CC(=O)N2[C@@H](Cc3ccc(O)cc3)C(=O)N(Cc3cccc4c(-c5ccc(C(=O)NOC(C)(C)C)cc5)cn(C)c34)C[C@@H]2N1C(=O)NCc1ccccc1 [Compound D-46],3.4 nM
6,C=CCN1CC(=O)N2[C@@H](Cc3ccc(O)cc3)C(=O)N(Cc3cccc4c(-c5ccc(NC(=O)c6ccc(CN)cc6)cc5)cn(C)c34)C[C@@H]2N1C(=O)NCc1ccccc1 [Compound D-53],1.2 nM
7,C=CCN1CC(=O)N2[C@@H](Cc3ccc(O)cc3)C(=O)N(Cc3cccc4c(-c5cccc(C(=O)NC6CC6)c5)cn(C)c34)C[C@@H]2N1C(=O)NCc1ccccc1 [Compound D-29],1.3 nM
8,C=CCN1CC(=O)N2[C@@H](Cc3ccc(O)cc3)C(=O)N(Cc3cccc4c(C(=O)N5CCN(Cc6cccc(C)n6)CC5)cn(C)c34)C[C@@H]2N1C(=O)NCc1ccccc1 [Compound E-31],6 nM
9,C=CCN1CC(=O)N2C(Cc3ccc(O)cc3)C(=O)N(Cc3cccc4c(C(=O)Nc5ccc(NCCN6CCN(C)CC6)nc5)cn(C)c34)CC2N1C(=O)NCc1ccccc1 (stereo not drawn) [Compound G-30],5 nM
10,C=CCN1CC(=O)N2[C@@H](Cc3ccc(O)cc3)C(=O)N(Cc3cccc4c(C(=O)NCc5cccc(N6CCOCC6)n5)cn(C)c34)C[C@@H]2N1C(=O)NCc1ccccc1 [Compound F-50],1.6 nM
11,C=CCN1CC(=O)N2[C@@H](Cc3ccc(O)cc3)C(=O)N(Cc3cccc4c(-c5cccc(C(=O)N6CCN(C)CC6)c5)cn(C)c34)C[C@@H]2N1C(=O)NCc1ccccc1 [Compound D-2],1.3 nM
12,C=CCN1CC(=O)N2[C@@H](Cc3ccc(O)cc3)C(=O)N(Cc3cccc4c(C(=O)NCc5cccc(N6CCCC6)n5)cn(C)c34)C[C@@H]2N1C(=O)NCc1ccccc1 [Compound F-49],11.4 nM
13,C=CCN1CC(=O)N2[C@@H](Cc3ccc(O)cc3)C(=O)N(Cc3cccc4c(C(=O)Nc5ccc(N(C)Cc6cncn6C)nc5)cn(C)c34)C[C@@H]2N1C(=O)NCc1ccccc1 [Compound G-34],1.37 nM
14,C=CCN1CC(=O)N2[C@@H](Cc3ccc(O)cc3)C(=O)N(Cc3cccc4c(-c5ccc(C(=O)NC)o5)cn(C)c34)C[C@@H]2N1C(=O)NCc1ccccc1 [Compound D-101],5.8 nM
15,C=CCN1CC(=O)N2C(CN(Cc3cccc4c(C(=O)Nc5ccc(N6CCN(C)CC6)cc5)cn(C)c34)C(=O)[C@@H]2Cc2ccc(O)cc2)N1C(=O)NCc1ccccc1 (stereo partly drawn) [Compound G-40],1.3 nM
16,C=CCN1CC(=O)N2[C@@H](Cc3ccc(O)cc3)C(=O)N(Cc3cccc4c(C(=O)N5CCN(c6ccccc6)CC5)cn(C)c34)C[C@@H]2N1C(=O)NCc1ccccc1 [Compound E-37],16.4 nM
17,C=CCN1CC(=O)N2[C@@H](Cc3ccc(O)cc3)C(=O)N(Cc3cccc4c(-c5ccc(C(=O)N6CCN(C)CC6)cc5)cn(C)c34)C[C@@H]2N1C(=O)NCc1ccccc1 [Compound D-3],0.1 nM
18,C=CCN1CC(=O)N2[C@@H](Cc3ccc(O)cc3)C(=O)N(Cc3cccc4c(C(=O)N5CCN(Cc6ccccc6)CC5)cn(C)c34)C[C@@H]2N1C(=O)NCc1ccccc1 [Compound E-26],2.3 nM
19,C=CCN1CC(=O)N2[C@@H](Cc3ccc(O)cc3)C(=O)N(Cc3cccc4c(C(=O)NCc5cccc(C)n5)cn(C)c34)C[C@@H]2N1C(=O)NCc1ccccc1 [Compound F-44],4.5 nM
20,C=CCN1CC(=O)N2[C@@H](Cc3ccc(O)cc3)C(=O)N(Cc3cccc4c(-c5ccc(NC(=O)C6CCCN(C)C6)cc5)cn(C)c34)C[C@@H]2N1C(=O)NCc1ccccc1 (stereo partly drawn) [Compound D-63],1.3 nM
21,C=CCN1CC(=O)N2[C@@H](Cc3ccc(O)cc3)C(=O)N(Cc3cccc4c(C(=O)N5CCN(C(C)(C)C)CC5)cn(C)c34)C[C@@H]2N1C(=O)NCc1ccccc1 [Compound E-8],8.9 nM

row,SMILES,GI50
1,C=CCN1CC(=O)N2[C@@H](Cc3ccc(O)cc3)C(=O)N(Cc3cccc4c(-c5ccc(C(=O)NCc6ccccc6)cc5)cn(C)c34)C[C@@H]2N1C(=O)NCc1ccccc1 [Compound D-27],4.3 nM
2,C=CCN1CC(=O)N2[C@@H](Cc3ccc(O)cc3)C(=O)N(Cc3cccc4c(-c5ccc(C(=O)NC6CCN(C(C)C)CC6)o5)cn(C)c34)C[C@@H]2N1C(=O)NCc1ccccc1 [Compound D-104],6.3 nM
3,C=CCN1CC(=O)N2[C@@H](Cc3ccc(O)cc3)C(=O)N(Cc3cccc4c(C(=O)NCCc5cccnc5)cn(C)c34)C[C@@H]2N1C(=O)NCc1ccccc1 [Compound F-52],4.6 nM
4,C=CCN1CC(=O)N2[C@@H](Cc3ccc(O)cc3)C(=O)N(Cc3cccc4c(C(=O)N(C)CCCNC(C)C)cn(C)c34)C[C@@H]2N1C(=O)NCc1ccccc1 [Compound F-19],1.5 nM
5,C=CCN1CC(=O)N2C(CN(Cc3cccc4c(C(=O)Nc5ccc(NCCCO)nc5)cn(C)c34)C(=O)[C@@H]2Cc2ccc(O)cc2)N1C(=O)NCc1ccccc1 (stereo partly drawn) [Compound G-19],9.3 nM
6,C=CCN1CC(=O)N2[C@@H](Cc3ccc(O)cc3)C(=O)N(Cc3cccc4c(-c5ccc(NC(=O)C6CCN(C(C)=O)CC6)cc5)cn(C)c34)C[C@@H]2N1C(=O)NCc1ccccc1 [Compound D-61],1.3 nM
7,C=CCN1CC(=O)N2[C@@H](Cc3ccc(O)cc3)C(=O)N(Cc3cccc4c(-c5cccc(C(=O)NCc6ccccc6)c5)cn(C)c34)C[C@@H]2N1C(=O)NCc1ccccc1 [Compound D-28],5.5 nM
8,C=CCN1CC(=O)N2[C@@H](Cc3ccc(O)cc3)C(=O)N(Cc3cccc4c(-c5ccc(C(=O)Nc6ccc(N7CCNCC7)cc6)cc5)cn(C)c34)C[C@@H]2N1C(=O)NCc1ccccc1 [Compound D-13],1.2 nM
9,C=CCN1CC(=O)N2C(CN(Cc3cccc4c(C(=O)Nc5ccc(N)nc5)cn(C)c34)C(=O)[C@@H]2Cc2ccc(O)cc2)N1C(=O)NCc1ccccc1 (stereo partly drawn) [Compound G-9],19.9 nM
10,C=CCN1CC(=O)N2[C@@H](Cc3ccc(O)cc3)C(=O)N(Cc3cccc4c(-c5ccc(C(=O)N(N)C(C)C)cc5)cn(C)c34)C[C@@H]2N1C(=O)NCc1ccccc1 [Compound D-42],1.8 nM
11,C=CCN1CC(=O)N2C(CN(Cc3cccc4c(-c5ccc(NC(=O)C6CCN(C)CC6)cc5)cn(C)c34)C(=O)[C@@H]2Cc2ccc(O)cc2)N1C(=O)NCc1ccccc1 (stereo partly drawn) [Compound D-60],1.1 nM
12,C=CCN1CC(=O)N2[C@@H](Cc3ccc(O)cc3)C(=O)N(Cc3cccc4c(-c5ccc(C(=O)N(C)CCN(C)C)cc5)cn(C)c34)C[C@@H]2N1C(=O)NCc1ccccc1 [Compound D-40],1.2 nM
13,C=CCN1CC(=O)N2[C@@H](Cc3ccc(O)cc3)C(=O)N(Cc3cccc4c(C(=O)N(C)CCCc5c(C)nn(C)c5C)cn(C)c34)C[C@@H]2N1C(=O)NCc1ccccc1 [Compound F-38],6.1 nM
14,C=CCN1CC(=O)N2C(CN(Cc3cccc4c(C(=O)Nc5ccc(SC)cc5)cn(C)c34)C(=O)[C@@H]2Cc2ccc(O)cc2)N1C(=O)NCc1ccccc1 (stereo partly drawn) [Compound G-7],10.5 nM
15,C=CCN1CC(=O)N2[C@@H](Cc3ccc(O)cc3)C(=O)N(Cc3cccc4c(-c5ccc(C(=O)N(C)OC)cc5)cn(C)c34)C[C@@H]2N1C(=O)NCc1ccccc1 [Compound D-47],1.3 nM
16,C=CCN1CC(=O)N2[C@@H](Cc3ccc(O)cc3)C(=O)N(Cc3cccc4c(C(=O)Nc5ccc(N6CCC(N(C)C)CC6)nc5)cn(C)c34)C[C@@H]2N1C(=O)NCc1ccccc1 [Compound G-45],1.2 nM
17,C=CCN1CC(=O)N2[C@@H](Cc3ccc(O)cc3)C(=O)N(Cc3cccc4c(-c5ccc(NC(=O)CCCNCC(N)=O)cc5)cn(C)c34)C[C@@H]2N1C(=O)NCc1ccccc1 [Compound D-71],1.9 nM
18,C=CCN1CC(=O)N2[C@@H](Cc3ccc(O)cc3)C(=O)N(Cc3cccc4c(-c5ccc(C(=O)NN6CCOCC6)cc5)cn(C)c34)C[C@@H]2N1C(=O)NCc1ccccc1 [Compound D-43],1.2 nM
19,C=CCN1CC(=O)N2[C@@H](Cc3ccc(O)cc3)C(=O)N(Cc3cccc4c(-c5cccc(C(=O)N6CCOCC6)c5)cn(C)c34)C[C@@H]2N1C(=O)NCc1ccccc1 [Compound D-1],1.8 nM
20,C=CCN1CC(=O)N2[C@@H](Cc3ccc(O)cc3)C(=O)N(Cc3cccc4c(-c5ccc(C(=O)Nc6ccc(CN)cc6)cc5)cn(C)c34)C[C@@H]2N1C(=O)NCc1ccccc1 [Compound D-19],2 nM

# Same assay, conditions: MV-4-11 cells, 72 hours; read-out: MV4-11 GI50
row,SMILES,GI50
1,C=CCN1CC(=O)N2[C@@H](Cc3ccc(O)cc3)C(=O)N(Cc3cccc4c(C(=O)N5CCN(Cc6ccccn6)CC5)cn(C)c34)C[C@@H]2N1C(=O)NCc1ccccc1 [Compound E-28],5.6 nM
